Assay results as given in ChEMBL document CHEMBL5724709, “EUbOPEN Chemogenomics Library - IncuCyte” (2024).
Square brackets hold non-standard residues; d marks the D form. Peptide text beside a SMILES is read from it. * marks the point of attachment. Nle = CCCC[C@H](N)C(=O)O; Cbz = O=C(OCc1ccccc1)*; CH2Cl = ClC*

Columns and labels:
Format in all cases: toxicity, cell-based
HEK-293T = test: Incucyte cell viability with HEK293T; conditions: human, 24 h, 10 µM, compound concentration 10 uM
Fibroblast = test: Incucyte cell viability with human fibroblast; conditions: 24 h, 10 µM, compound concentration 10 uM
U2OS = test: Incucyte cell viability with U2OS; conditions: human, 24 h, 10 µM, compound concentration 10 uM
Also: unitless GR value; below 1 slowed growth and below 0 cell loss.

SMILES | Growth Rate (HEK-293T; replicate number 1) | Growth Rate (HEK-293T; replicate number 2) | Growth Rate (Fibroblast; replicate number 1) | Growth Rate (U2OS; replicate number 1) | Growth Rate (U2OS; replicate number 2) | Growth Rate (Fibroblast; replicate number 2)
CC1=NN(c2ccc(C(=O)O)cc2)C(=O)/C1=C/c1ccc(-c2cc(C)c(C)cc2[N+](=O)[O-])o1 | 0.84 | 1 | 1 | 0.18 | 1 | –
CC(C)(F)C[C@H](N[C@@H](c1ccc(-c2ccc(S(C)(=O)=O)cc2)cc1)C(F)(F)F)C(=O)NC1(C#N)CC1 [ODANACATIB] | 0.9 | 0.87 | 0.39 | 0.65 | 1 | 1
Cc1cc(/N=N/c2ccc3c(c2)CCC(=O)N3)c(N)cc1O | 0.63 | 0.88 | 1 | 0.36 | 1 | –
CCN(c1cc(-c2ccc(CN3CCOCC3)cc2)cc(C(=O)NCc2c(C)cc(C)[nH]c2=O)c1C)C1CCOCC1 [TAZEMETOSTAT] | 0.68 | 0.82 | 0.54 | 0.43 | 0.87 | –
CCCOc1cccc(Oc2cc3c(cc2NS(=O)(=O)c2cccc(C(=O)NCCOCCOCCOCC(=O)N[C@H](C(=O)N4C[C@H](O)C[C@H]4C(=O)NCc4ccc(-c5scnc5C)cc4)C(C)(C)C)c2)n(C)c(=O)n3C)c1 | 0.11 | 0.31 | 1 | 0.91 | 0.63 | –
CCCOC(=O)N1CCN(C(=O)c2ccc3c(Cl)cc(-c4ccc(C5(N)CC5)cc4)nc3c2)C[C@H]1C | 0.01 | 0.3 | 1 | 0.52 | 1 | -0.86
C[C@@H]1CN(c2nccc(Nc3ccc4c(c3)n(CCC(C)(C)O)c(=O)n4C)n2)C[C@H](C)C1(F)F | 0.03 | 0.19 | 0.74 | 0.72 | 0.76 | 1
O=c1[nH]ccc2cc(F)c(NS(=O)(=O)c3ccc(N4CC[C@@H](O)C4)s3)cc12 | 0.79 | 0.98 | 0.99 | 1 | 0.94 | 0.64
CN1CCN(c2cc(C(=O)Nc3ncc(SCc4cccc(C(F)(F)F)c4)s3)ccn2)CC1 | 0.24 | 0.59 | 0.19 | 0.31 | 0.48 | 1
COc1ccccc1C(=O)Nc1cc2c(cc1N1CCCCC1)n(C)c(=O)n2C | 0.58 | 0.99 | 1 | 1 | – | –
O=C(NO)c1ccc(CN(c2cnccn2)c2cnccn2)cc1 [KA-2507] | 1 | – | 1 | -0.27 | 0.83 | 0.97
COc1nc(N)nc(Nc2cc(S(N)(=O)=O)ccc2N[C@@H](c2cccc3c2OC(F)(F)O3)c2ncccc2Cl)n1 | 0.97 | 1 | 1 | 1 | 0.89 | –
CCC(=O)N1CCOc2c(cc(-c3cc(OC)cc(OC)c3)cc2C(=O)N[C@H]2CCCN(C)C2)C1 | 0.39 | 0.7 | 0.84 | 0.42 | 1 | 0.98
NC(=O)c1cccc(NC(=O)CCC(=O)NCCc2cn(CCNS(=O)(=O)c3cccc(C(=O)O)c3)nn2)c1 | 0.69 | 0.77 | 0.46 | 0.49 | 1 | 1
CC(=O)N[C@@H](Cc1ccccc1)C(=O)N[C@@H](CC(C)C)C(=O)N[C@H](C(=O)N[C@@H](CC(=O)O)C(=O)CCl)[C@@H](C)O (Ac-FLTD-CH2Cl) | 0.96 | 0.99 | 0.51 | 0.81 | 0.66 | 1
CC(=O)N[C@@H](CC(=O)O)C(=O)N[C@@H](CCC(=O)O)C(=O)N[C@H](C(=O)N[C@@H](CC(=O)O)C(=O)CCl)C(C)C.O=C(O)C(F)(F)F | 0.81 | 1 | 1 | 1 | – | 0.21
COc1cc2c(Nc3ccc(Br)cc3F)ncnc2cc1OCC1CCN(C)CC1 [VANDETANIB] | -0.15 | 0.26 | 0.22 | -0.56 | 0.01 | -0.22
CC(C)(O)c1ccc(-c2nc3c(F)cc(F)cc3c(=O)[nH]2)cc1 | 0.45 | 1 | 0.13 | 0.23 | 1 | 0.87

SMILES | Growth Rate (HEK-293T; replicate number 1) | Growth Rate (HEK-293T; replicate number 2) | Growth Rate (Fibroblast; replicate number 1) | Growth Rate (U2OS; replicate number 1) | Growth Rate (U2OS; replicate number 2) | Growth Rate (Fibroblast; replicate number 2)
O=C1Cc2cc(C(=O)N[C@@H]3C[C@H]4CC[C@@H](C3)N4S(=O)(=O)CC3CCN(CCCC(F)(F)F)CC3)c(Cl)cc2N1 | 0.97 | 1 | 0.96 | 1 | – | 0.61
COC(=O)C[C@@H]1N=C(c2ccc(Cl)cc2)c2c(sc(C)c2C)-n2c(C)nnc21 | 0.62 | 0.77 | 1 | 1 | – | 0.73
CC(=O)N[C@@H](CC(C)C)C(=O)N[C@@H](CCC(=O)O)C(=O)N[C@@H](Cc1cnc[nH]1)C(=O)N[C@H](C=O)CC(=O)O.O=C(O)C(F)(F)F (Ac-LEHD-aldehyde) | 0.81 | 0.98 | 1 | 1 | 0.89 | 0.49
O=C(C1CC1)N1CC[C@@H](Cc2n[nH]c(=O)n2-c2ccc(-c3ccc4occc4c3)cc2)C1 | 0.73 | 1 | 0.43 | 0.54 | 0.69 | 0
CC1(C)c2cccc(C(=O)NO)c2CN1c1cnc(C(F)(F)F)cn1 | 0.61 | 0.71 | 1 | 0.15 | 1 | -0.04
CCCC[C@@H](C=O)NC(=O)[C@H](CC(C)C)NC(=O)[C@H](CC(C)C)NC(C)=O (Ac-Leu-Leu-[Nle]-aldehyde) | -0.02 | 0.18 | 0.53 | -0.08 | 0.62 | 1
O=S(=O)(O)c1ccc2cc(/N=N/c3cc(S(=O)(=O)O)c4cccnc4c3O)ccc2c1 | 1 | – | 0.17 | -0.34 | 1 | -0.42
CN1CCN(c2nc(-c3ccc(C(=O)NC4(C(=O)NCC#N)CCCCC4)cc3)cs2)CC1 | 0.86 | 0.8 | 0.74 | 1 | – | 1
O=CC1CCCN1C(=O)C1CCCN1C(=O)OCc1ccccc1 (stereo not drawn) (Cbz-Pro-Pro-aldehyde; configuration not given here) | 0.88 | 0.71 | 0.22 | 0.37 | 0.84 | 0.25
CC(=O)Nc1ccc(-c2cc(-c3ccccc3)nc3cc(C(=O)NCCCn4ccnc4)nn23)cc1 | 0.47 | 0.63 | 0.41 | 1 | 0.62 | 1
C[C@H]1CCCN1Cc1nc2cc(NC(=O)c3ccc4c(cnn4C)c3)ccc2[nH]1 | 0.37 | 0.49 | 1 | 0.16 | 0.68 | 0.78
CCS(=O)(=O)N1CC(CC#N)(n2cc(-c3ncnc4[nH]ccc34)cn2)C1 [BARICITINIB] | 0.96 | 1 | 0.11 | 1 | 0.77 | 0.42
CC(=O)N1CCc2c(c(N3CCCc4cc(-c5cnn(C)c5)c(C(F)F)cc43)nn2C2CCOCC2)C1 | 0.61 | 0.51 | 0.79 | 1 | 0.89 | 1
CC[C@H](C)[C@H](NC(C)=O)C(=O)N[C@@H](CCC(=O)O)C(=O)N[C@H](C(=O)N[C@H](C=O)CC(=O)O)[C@@H](C)O.O=C(O)C(F)(F)F (Ac-IETD-aldehyde) | 0.57 | 1 | 0.25 | 1 | – | 0.42
O=C(CCCCCCNC(=O)c1cnc(N(c2ccccc2)c2ccccc2Cl)nc1)NO [CITARINOSTAT] | 0.9 | 1 | 1 | -0.08 | 0.29 | 0.2
Nc1c[nH]c(=O)c2cc(-c3ccccc3)sc12 | 0.88 | 0.73 | -0.61 | -0.48 | 0.33 | -0.86
Cc1nn(CC(F)(F)F)cc1Nc1ncc(Br)c(NCc2ccc(S(N)(=O)=O)cc2)n1 | 0.53 | 1 | 1 | 1 | 0.83 | –
Cc1cc(-c2ccccc2)cc(C(=O)NNS(=O)(=O)c2ccccc2)c1F | 0.49 | 0.81 | 1 | 0.87 | 0.89 | 0.27
